Experimental findings from patent US12599599B2, “Anti-inflammatory, anti-cancer, and anti-angiogenic compounds, pharmaceutical compositions, and methods of making and using thereof” (MEDICON PHARMACEUTICALS, INC., priority 2017, dated 2026) are described below.

Test [1] concerns A549 lung cancer. Briefly: 24 hr growth inhibition of cell line. It counts as cell-based. The note with it: Homo sapiens. As to the method: (§1) The therapeutic efficacy of compounds 2, 5, and 6 was assessed in human and murine cell lines of varied tissue origin, and their 24 hr 50% inhibitory concentration was determined by following standard methodologies. Typical results are shown in the Table 5, indicating a broad anticancer effect.

The test system of test [2] is AGS gastric cancer. Briefly: 24 hr growth inhibition of cell line. The class given is cell-based. To be noted: Homo sapiens. As to the method:
as §1

Test [3] deals with HCT116 colon cancer. Kind of test: 24 hr growth inhibition of cell line. It counts as cell-based. The note with it: Homo sapiens, HCT-116, 24 h. As for the experimental part:
as §1

Test [4] has as its system RAW264 murine macrophage. Kind of test: 24 hr growth inhibition of cell line. It counts as cell-based. To be noted: Mus musculus, RAW264.7, 24 h. As to the method: as §1
Test [5] deals with SKOV-3 human ovarian cancer cell xenografts. Briefly: Intraperitoneal luciferase-expressing SKOV-3 tumors in nude mice. It counts as in vivo. The note with it: 15 mg/kg ip once a day, six days a week. As for the experimental part:
The ability of compound 5 to inhibit the growth of human ovarian cancer cell xenografts in nude mice was determined. A mouse model that recapitulates the features of peritoneal spread was used, the peritoneal spread being the clinically most relevant presentation of ovarian cancer. In this model, luciferase-expressing ovarian cancer cells are injected intraperitoneally (ip) into nude mice. Multiple tumors grow in the peritoneal cavity and their growth is monitored periodically using the IVIS Lumina II imaging system following the intraperitoneal administration of luciferin, the substrate of luciferase. The luciferase gene was transfected into SKOV-3 cells, and 2×10^6 cells were intraperitoneally injected into mice. Two weeks later, when tumors had grown, mice treatment was started by intraperitoneally injecting compound 5, 15 mg/kg or vehicle (corn oil), once a day, six days a week (n=10 mice/group).
When the tumor volume of the compound 5 treated mice at the end of the study is compared to that of the day when treatment started (baseline), compound 5 caused 53% tumor regression, with 3 out of 10 mice having barely detectable tumors by imaging and no tumors visible at necropsy.
Compound 6 was also efficacious against chemotherapy-resistant ovarian cancer. […] The effect of compound 6 in cisplatin resistant (A2780cis) and doxorubicin (Adriamycin) resistant (A2780ADR) tumors was studied. Briefly, each of these cell lines was subcutaneously inoculated into athymic nude mice and when the tumor size reached 100-200 mm^3, compound 6 150 mg/kg/day or its vehicle were given i.p. After 11 days of treatment, for the cisplatin-resistant tumors the tumor volume of the vehicle group was 2388±127 mm^3 and for compound 6 group 1032±108 mm^3 (mean±SEM; P<0.02); while for the doxorubicin-resistant tumors these values were: vehicle group=1369±337 mm^3 and compound 6 group=396±182 mm^3 (P<0.02).

Test [6] relates to A2780 xenografts. Briefly: Subcutaneous xenografts in nude mice, platinum sensitive. The class given is in vivo. The note with it: compound 5 15 mg/kg/day six days a week ip; cis-platinum 5.5 mg/kg one time a week ip. As for the experimental part: To determine whether compound 5 is efficacious against chemotherapy-resistant ovarian cancer, three pairs of sensitive and resistant human ovarian cancer cell lines were grown as subcutaneous xenografts in nude mice and treated as summarized in FIG. 10. These cell lines were: A2780, sensitive to both cis-platinum and Adriamycin (doxorubicin); A2780cis, resistant to cis-platinum; A2780ADR, resistant to Adriamycin: HEY, sensitive to Taxol; HEY-T30, resistant to Taxol. The treatments administered were: vehicle control; compound 5, 15 mg/kg/day six days a week, ip; cis-platinum 5.5 mg/kg, one time a week ip; Adriamycin 3 mg/kg twice a week ip; and Taxol 20 mg/kg twice a week ip.

Test [7] concerns MIA PaCa2 human pancreatic cancer cells. Kind of test: In vitro synergy with tamoxifen. The class given is cell-based. To be noted: tamoxifen prior to or concurrently with compound 5. An excerpt:
Additionally, synergy has been documented between compounds 5 and 6 individually and several chemotherapeutic and other agents, including but not limited to various camptothecins (e.g., camptothecin 11), resveratrol, gemcitabine, docetaxel, curcumin, progesterone, and methotrexate. Such synergy concerned the ability of these combinations to markedly suppress the growth of various human cancer cell lines originating in the pancreas, lung and other tissues. Furthermore, extremely efficacious was the combination of compounds 5, 6 and tamoxifen in completely suppressing the growth of K-ras mutant human pancreatic cancer cell lines.

Test [8] relates to 5′-cap dependent translation initiation. Kind of test: Renilla-Firefly luciferase dual translation assay in SKOV-3 cells. The class given is cell-based, human. An excerpt:
(§2) FIG. 13A: Compound 5 induces the phosphorylation of eIF2α, confirming integrated stress response. p-eIF2αinduces ATF4 that suppresses 5′-cap dependent translation initiation, shown below. […] The levels of reporter proteins used in the translation assay (Pierce™ Renilla-Firefly Luciferase Dual Assay Kit; Thermo Scientific, Grand Island, NY) were normalized to the levels of intracellular FLUC-RLUC transcripts and are shown as percent of untreated control cells. RLU=Relative light units. 5′-cap dependent translation initiation was much less and occurred later. Values: Mean±SEM; *, p<0.05 and **, p<0.01 vs. control. […] Loading controls: β-actin and GADPH.

Test [9] relates to GCN2. Kind of test: Activation by phosphorylation in SKOV-3 cells. It counts as cell-based, human. To be noted: 1.5×IC50.
Source text: as §2

The test system of test [10] is PERK. Briefly: Activation by phosphorylation in SKOV-3 cells. It counts as cell-based, human. To be noted: 1.5×IC50.
Source text: as §2

Test [11] has as its system Ras palmitoylation in A2780 and A2780cis ovarian cancer cells. Briefly: Ras palmitoylation (resin capture, immunoblot). It counts as cell-based, human. As for the experimental part:
FIGS. 18A-18B illustrate the effect of compounds 5 and 6 on K-Ras. FIG. 18A: Compound 6 suppressed of K-Ras activation. Cells with mutant K-Ras were treated with compound 6 1.5×IC50 for the respective time periods. K-Ras activity was determined by Ras pull-down (Thermo Scientific; following vendor instructions). K-Ras activation is suppressed 37% at 1 hr and 88% at 2 hrs compared to respective controls. FIG. 18B: Compound 5 suppressed the palmitoylation of Ras in A2780 and A2780cis (resistant to cisplatin) ovarian cancer cells. Palmitoylation is detected by removing S-palmitate groups from proteins, creating new free thiols (where the palmitic acid group used to be) and capturing the previously S-palmitoylated proteins on a resin, using a commercial kit (Badrilla, Leeds, UK). Ras was detected in the eluate by immunoblot.
This effect may be particularly useful in types of cancer characterized by K-Ras mutation such as, for example, pancreatic, lung and ovarian cancer. FIG. 18A illustrates the inhibition of K-Ras activation by compound 6. […] This property of compound 5 is not shared for example by compound 6 or phosphosulindac.
Background: In western blotting, separated proteins are transferred to a membrane and probed.

Broadly, the IC50 is the concentration that inhibits the measured activity by half. High values mean weaker potency, low ones greater potency. Take `CCN(CC)CCCCNC(=O)c1ccccc1SC/C=C(\C)CC/C=C(\C)CCC=C(C)C` [Compound 5]: the IC50 in [1] amounted to 19 µM; in test [2], 14 µM; in [3] it was 10 µM; in [4], 5 µM. The “reduction of tumor volume compared to control” value in test [5] (day 24) came to 153%. Besides, in test [5] (end of study), the “mice having barely detectable tumors by imaging and no tumors visible at necropsy” value is reported as 3 out of 10. In addition, the “tumor regression vs baseline (day treatment started)” value in test [5] (end of study) came to 53%. Besides, in [6], the “growth of platinum-sensitive xenografts” value was “suppressed the growth”. Also, the “synergy with tamoxifen on growth of MIA PaCa2 cells” value in [7] is recorded as “synergizes”. The “5′-cap dependent translation initiation” value in test [8] is given as “suppresses predominantly”. The “GCN2 activation by phosphorylation” value in test [9] is “activated by phosphorylation”. Besides, in [10], the “PERK activation by phosphorylation” value is “activated by phosphorylation”. The “suppression of palmitoylation of Ras” value in test [11] is given as “suppressed”.
